Where two headings read alike, the source gives them in different places.
Columns and labels:
[1] = target: T1, hPXR (Homo sapiens (Human), UniProt O75469); test: hPXR binding assay; conditions: for inhibition at 10 µM: read-out: Binding (% inhibition at 10 μM)
[2] = target: T1, hPXR; test: cell-based hPXR agonistic assay; conditions: for Agonist (% activation at 10 μM): rifampicin at 10 μM as 100% activation, DMSO (0.3%) as 0%
[3] = target: T1, hPXR; test: cell-based hPXR antagonistic assay; conditions: for inhibition at 10 µM: read-out: Antagonist (% inhibition at 10 μM)
[4] = target: T1, hPXR; test: cell-based hPXR inverse agonistic assay; conditions: for inhibition at 10 µM: read-out: Inverse agonist (% inhibition at 10 μM)
[5] = read-out: Binding (IC50/μM), hPXR binding assay
[6] = read-out: Inverse agonist (IC50/μM), cell-based hPXR inverse agonistic assay
[7] = read-out: Agonist (EC50/μM), cell-based hPXR agonistic assay
[8] = read-out: Antagonist (IC50/μM), cell-based hPXR antagonistic assay with rifampicin (5 μM)

T1 sequence (O75469 whole entry): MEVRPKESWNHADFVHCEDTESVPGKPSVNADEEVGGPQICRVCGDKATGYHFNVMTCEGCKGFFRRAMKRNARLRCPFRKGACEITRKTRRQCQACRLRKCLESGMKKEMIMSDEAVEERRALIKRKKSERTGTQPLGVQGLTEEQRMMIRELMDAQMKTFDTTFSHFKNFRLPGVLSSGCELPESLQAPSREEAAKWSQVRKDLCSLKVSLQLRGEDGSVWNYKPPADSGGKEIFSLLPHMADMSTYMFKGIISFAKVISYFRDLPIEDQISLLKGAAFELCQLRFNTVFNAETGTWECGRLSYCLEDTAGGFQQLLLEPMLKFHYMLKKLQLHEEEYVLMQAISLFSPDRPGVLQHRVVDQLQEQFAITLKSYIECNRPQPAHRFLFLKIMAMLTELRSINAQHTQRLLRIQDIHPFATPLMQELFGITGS

SMILES | inhibition at 10 µM [1] [%] | IC50 [1, 5] [µM] | EC50 [2] [µM] | IC50 [3] [µM] | inhibition at 10 µM [3] [%] | IC50 [4] [µM] | inhibition at 10 µM [4] [%] | Agonist (% activation at 10 μM) [2] | IC50 [1] [µM] | IC50 [4, 6] [µM] | EC50 [2, 7] [µM] | IC50 [3, 8] [µM] | Antagonist (% inhibition at 10 μM) ([3]; at 10 μM, SPA70 at 10 μM with rifampicin (5 μM) as 100% inhibition, rifampicin alone (5 μM) as 0%)
COc1ccc(OC)c(-n2nnc(C(=O)Nc3cccc(N4CCOCC4)c3)c2C)c1 [A14] | – | – | > 30 | > 30 | – | > 30 | – | – | > 30 | – | – | – | –
COc1ccc(OC)c(-n2nnc(C(=O)Nc3cccc(C)c3)c2C)c1 [A3] | 52 | 10.9 ± 0.4 | – | > 30 | – | > 30 | – | (30 ± 3)% | – | – | 3.51 ± 0.86 | – | –
COc1ccc(OC)c(-n2nnc(C(=O)Nc3cc(OC(=O)c4nnn(-c5cc(OC)ccc5OC)c4C)cc(C(C)(C)C)c3)c2C)c1 [D13, 3-(tert-butyl)-5-(1-(2,5-dimethoxyphenyl)-5-methyl-1H-1,2,3-triazole-4-carboxamido)phenyl 1-(2,5-dimethoxyphenyl)-5-methyl-1H-1,2,3-triazole-4-carboxylate] | – | – | > 30 | 0.83 ± 0.11 | 68 | 0.15 | 93 | – | > 30 | – | – | – | –
CCCCNc1cc(NC(=O)c2nnn(-c3cc(OC)ccc3OC)c2C)cc(C(C)(C)C)c1 [D4, N-(3-(tert-butyl)-5-(butylamino)phenyl)-1-(2,5-dimethoxyphenyl)-5-methyl-1H-1,2,3-triazole-4-carboxamide] | – | 0.45 ± 0.12 | > 30 | – | – | – | – | – | – | 0.039 ± 0.012 | – | 0.13 | –
CCCCOc1ccc(C(C)(C)C)cc1NC(=O)c1nnn(-c2cc(OC)cc(OC)c2)c1C [H16] | – | – | – | > 30 | – | > 30 | – | (32 ± 4)% | > 30 | – | 2.77 ± 0.47 | – | –
COc1ccc(OC)c(-n2nnc(C(=O)Nc3cccc(-n4cccc4)c3)c2C)c1 [A11] | 24 | 1.41 ± 0.69 | > 30 | > 30 | – | > 30 | – | – | – | – | – | – | –
COc1ccc(OC)c(-n2nnc(C(=O)Sc3ccc(NC(C)=O)cc3)c2C)c1 [K2] | 38 | 8.47 ± 0.78 | > 30 | > 30 | – | > 30 | – | – | – | – | – | – | –
CCCCNc1cc(NC(=O)c2nnn(-c3cc(Cl)ccc3OC)c2C)cc(C(C)(C)C)c1 [F3] | 83 | 0.12 | > 30 | 0.21 | 104 | 0.062 | 89 | – | – | – | – | – | –
COc1ccc(C)cc1-n1nnc(C(=O)Nc2ccc(OC)c(C(C)(C)C)c2)c1C [G3] | 71 | 1.08 ± 0.36 | > 30 | 1.7 | 105 | 0.82 | 111 | – | – | – | – | – | –
CCCCOc1ccc(C(C)(C)C)cc1NC(=O)c1nnn(-c2cc(OC)ccc2Br)c1C [H10] | 28 | 1.31 | > 30 | > 30 | – | > 30 | – | – | – | – | – | – | –
COc1ccc(OC)c(-n2nnc(C(=O)Nc3cc(C)ccc3OC)c2C)c1 [A25] | 73 | 1.36 ± 0.23 | > 30 | 12 ± 2 | 70 | 20.6 ± 0.42 | 53 | – | – | – | – | – | –
COc1ccc(Cl)cc1-n1nnc(C(=O)Nc2cc(N)cc(C(C)(C)C)c2)c1C [F2, N-(3-amino-5-(tert-butyl)phenyl)-1-(5-chloro-2-methoxyphenyl)-5-methyl-1H-1,2,3-triazole-4-carboxamide] | 65 | 7.68 ± 1.45 | > 30 | 18.2 ± 11.1 | 56 | 3.62 ± 1.74 | 101 | – | – | – | – | – | –
CCC[C@H](CC)Oc1ccc(C(=O)OC)cc1NC(=O)c1nnn(-c2cc(OC)ccc2OC)c1C [M4, Methyl (S)-3-(1-(2,5-Dimethoxyphenyl)-5-Methyl-1H-1,2,3-Triazole-4-Carboxamido)-4-(Hexan-3-yloxy)Benzoate] | 84 | – | > 30 | 0.006 | 112 | 0.001 | 142 | – | 0.003 | – | – | – | –
COc1ccc(OC)c(-n2nnc(C(=O)Nc3cc(C(C)(C)C)ccc3OCC(C)C)c2C)c1 [B32] | 81 | 0.018 | > 30 | 0.26 | 96 | – | 89 | – | – | – | – | – | –
CCC[C@H](CC)Oc1ccccc1NC(=O)c1nnn(-c2cc(OC)ccc2OC)c1C [M3, (S)-1-(2,5-Dimethoxyphenyl)-N-(2-(Hexan-3-yloxy)Phenyl)-5-Methyl-1H-1,2,3-Triazole-4-Carboxamide] | 77 | 0.013 ± 0.003 | > 30 | 0.033 ± 0.004 | 107 | 0.0034 ± 0.0003 | 106 | – | – | – | – | – | –
COc1ccc(OC)c(-n2nnc(C(=O)Nc3cc(NCC(=O)OC(C)(C)C)cc(C(C)(C)C)c3)c2C)c1 [D8, tert-butyl (3-(tert-butyl)-5-(1-(2,5-dimethoxyphenyl)-5-methyl-1H-1,2,3-triazole-4-carboxamido)phenyl)glycinate] | 81 | 0.33 | > 30 | 0.46 ± 0.06 | 104 | 0.12 | 127 | – | – | – | – | – | –
CNc1cc(NC(=O)c2nnn(-c3cc(OC)ccc3OC)c2C)cc(C(C)(C)C)c1 [D2, N-(3-(tert-butyl)-5-(methylamino)phenyl)-1-(2,5-dimethoxyphenyl)-5-methyl-1H-1,2,3-triazole-4-carboxamide] | – | 0.33 ± 0.11 | > 30 | – | – | – | – | – | – | 0.12 | – | 0.41 ± 0.13 | (109 ± 6)%
COc1ccc(OC)c(-n2nnc(C(=O)Nc3cc(N=C=S)cc(C(C)(C)C)c3)c2C)c1 [D11] | 47 | 2.6 ± 0.51 | > 30 | 30.2 ± 16.1 | 26 | 2.55 ± 0.64 | 95 | – | – | – | – | – | –

The next lines start with the values.

inhibition at 10 µM [1] [%] | IC50 [1, 5] [µM] | EC50 [2] [µM] | IC50 [3] [µM] | inhibition at 10 µM [3] [%] | IC50 [4] [µM] | inhibition at 10 µM [4] [%] | Agonist (% activation at 10 μM) [2] | IC50 [1] [µM] | IC50 [4, 6] [µM] | EC50 [2, 7] [µM] | IC50 [3, 8] [µM] | Antagonist (% inhibition at 10 μM) ([3]; at 10 μM, SPA70 at 10 μM with rifampicin (5 μM) as 100% inhibition, rifampicin alone (5 μM) as 0%) | SMILES
81 | 2.29 ± 0.83 | > 30 | 1.31 ± 0.23 | 103 | 0.64 | 75 | – | – | – | – | – | – | COc1ccc(C)cc1-n1nnc(C(=O)Nc2cc(O)cc(C(C)(C)C)c2)c1C [G7, N-(3-(tert-butyl)-5-hydroxyphenyl)-1-(2-methoxy-5-methylphenyl)-5-methyl-1H-1,2,3-triazole-4-carboxamide]
54 | 6.94 ± 0.2 | 5.16 ± 1.1 | > 30 | – | > 30 | – | (24 ± 2)% | – | – | – | – | – | COc1ccc(-n2nnc(C(=O)Nc3ccc(NC(C)=O)c(C(C)(C)C)c3)c2C)cc1 [E2, N-(4-acetamido-3-(tert-butyl)phenyl)-1-(4-methoxyphenyl)-5-methyl-1H-1,2,3-triazole-4-carboxamide]
– | – | > 30 | > 30 | – | > 30 | – | – | > 30 | – | – | – | – | COc1ccc(OC)c(-n2nnc(C(=O)Nc3ccc(CN4CCN(C)CC4)c(C(F)(F)F)c3)c2C)c1 [A21]
92 | 0.33 | 0.39 | 10.7 ± 2.39 | 25 | > 30 | – | (68 ± 5)% | – | – | – | – | – | COc1ccc(OC)c(-n2nnc(NS(=O)(=O)c3ccc(C(C)(C)C)cc3)c2C)c1 [K7]
– | – | 4.05 ± 1.52 | > 30 | – | > 30 | – | (41 ± 3)% | > 30 | – | – | – | – | COc1ccc(-n2nnc(C(=O)Nc3cccc(C(C)(C)C)c3)c2C)cc1 [E5]
61 | 3.53 ± 0.58 | > 30 | 17.3 ± 1.39 | 65 | 1.7 | 107 | – | – | – | – | – | – | COc1ccc(OC)c(-n2nnc(C(=O)Nc3cc(NCC(=O)O)cc(C(C)(C)C)c3)c2C)c1 [D9]
50 | 9.37 ± 3.52 | > 30 | > 30 | – | – | 36 | – | – | 25.8 ± 6.27 | – | – | – | COc1ccc(OC)c(-n2nnc(C(=O)Nc3cccc(N4CCCCC4)c3)c2C)c1 [A12]
62 | 0.21 | > 30 | 0.4 | 105 | 0.15 ± 0.04 | 96 | – | – | – | – | – | – | CCCCOc1cc(NC(=O)c2nnn(-c3cc(C)ccc3OC)c2C)cc(C(C)(C)C)c1 [G9]
97 | 0.0147 ± 0.0026 | 0.021 | > 30 | – | > 30 | – | (136 ± 26)% | – | – | – | – | – | COc1ccc(OC)c(-n2nnc(S(=O)(=O)Nc3cccc(C(C)(C)C)c3)c2C)c1 [K6, N-(3-(tert-butyl)phenyl)-1-(2,5-dimethoxyphenvl)-5-methyl-1H-1,2,3-triazole-4-sulfonamide]
43 | 10.7 ± 0.23 | 7.46 ± 1.11 | > 30 | – | > 30 | – | (32 ± 2)% | – | – | – | – | – | COc1ccc(OC)c(-n2nnc(C(=O)NS(=O)(=O)c3ccc(C(C)(C)C)cc3)c2C)c1 [K5, N-((4-(tert-butyl)phenyl)sulfonyl)-1-(2,5-dimethoxyphenyl)-5-methyl-1H-1,2,3-triazole-4-carboxamide]
– | – | 1.44 ± 0.27 | > 30 | – | > 30 | – | (35 ± 3)% | > 30 | – | – | – | – | COc1ccc(-n2nnc(C(=O)Nc3ccc(C(C)(C)C)cc3)c2C)cc1 [E6]

Reference: patent US20250282736A1, “SMALL MOLECULE MODULATORS OF HUMAN PREGNANE X RECEPTOR” (ST. JUDE CHILDREN'S RESEARCH HOSPITAL, priority 2022, published 2025)
